Converted amounts (≈) assume the structure as drawn.

The conditions of the data set: buffer; pH 7.4; 200.0 µM.
One may read the solubility (kinetic) as the concentration staying in solution when a stock, usually in DMSO, is diluted into the medium. Compound `CCOc1cc(/C=C/c2nc3ccccc3c(=O)[nH]2)ccc1O` had a kinetic solubility of 32.4 µg/mL (≈ 105 µM).
Next, `O=C(Cc1cccc2ccccc12)Nc1cc(Cl)ccc1C(=O)O`: greater than 51 µg/mL; `Clc1ccc2c(NCc3cccs3)ncnc2c1`: 4.5 µg/mL (≈ 16.3 µM); `CNS(=O)(=O)c1cccc(C(=O)OCC(=O)NC2CCCC2)c1`: greater than 51.1 µg/mL.
Regarding `CCOC(=O)CNC(=O)N1CCCC(N(C)CCc2ccccc2)C1` (configuration not stated), the solubility (kinetic) was greater than 52.1 µg/mL.
Take `CC(C)=CCN1CCN(Cc2c[nH]c3ccccc23)CC1CCO` (configuration not stated): the kinetic solubility was greater than 49.1 µg/mL.
Compound `CCO/N=C/C1=C(O)C(C(=O)OC)C(C)(C)CC1=O` (configuration not stated) returned a solubility (kinetic) greater than 40.4 µg/mL.
The compound `CCOC(=O)C1=C(Nc2ccc(Cl)cc2)OCC1=O` registered a kinetic solubility greater than 42.3 µg/mL.
For the compound `COc1ccc(-c2cnc3n2CCCCC3)cc1`, the solubility (kinetic) is greater than 36.3 µg/mL.
The figure for `CCn1c(=O)c2ccccc2n(Cc2cccc([N+](=O)[O-])c2)c1=O` is 0.9 µg/mL (≈ 2.77 µM).
Next, `COc1cc(C(=O)NC23CC4CC(CC(C4)C2)C3)cc(OC)c1OC`: less than 0.7 µg/mL; `CCCNC(=O)c1noc2c1CCc1cc(OC)ccc1-2`: 5.6 µg/mL (≈ 19.6 µM); `CC1CCN(C(=O)CS(=O)(=O)Cc2ccccc2)CC1`: 42.3 µg/mL (≈ 143 µM).
The figure for `O=C(NCc1cccc(Cl)c1)c1cc(=O)[nH]c2ccccc12` is 1.8 µg/mL (≈ 5.76 µM).
On to `CCNS(=O)(=O)c1ccc(CCC(=O)N2CCOCC2)cc1`, for which the solubility (kinetic) was greater than 49 µg/mL.
Next, `NC(=O)COC(=O)c1cc(=O)[nH]c2ccccc12`: greater than 36.9 µg/mL; `C=CCn1c(SCc2ccc(C(=O)O)cc2)nc2sc(C)c(C)c2c1=O`: greater than 58 µg/mL.
The figure for `O=C1CN(C(=O)c2cccc([N+](=O)[O-])c2)CC(=O)N1` is greater than 39.5 µg/mL; for `CCC(=O)Nc1cccc(NC(=O)c2ccc(C)cc2Cl)c1` it is 0.6 µg/mL (≈ 1.89 µM).
`O=C1CSC(c2ccccc2[N+](=O)[O-])N1c1cccc(F)c1` (configuration not stated) gave a solubility (kinetic) of 12.9 µg/mL (≈ 40.5 µM).
Take `N#Cc1cccnc1Oc1ccccc1`: the kinetic solubility was 25.3 µg/mL (≈ 129 µM).
In turn, `Cc1ccc(NC(=O)CCN2C(=O)OC(C)(C)C2(C)O)cc1` (configuration not stated) showed a kinetic solubility of 34 µg/mL (≈ 111 µM).
The figure for `COC(=O)c1ccc(NC(=S)NC(=O)c2cccnc2)cc1` is 3.7 µg/mL (≈ 11.7 µM).
The figure for `CC(NC(=O)Cn1cc(C(F)(F)F)ccc1=O)c1ccc(F)cc1` (configuration not stated) is 23.5 µg/mL (≈ 68.7 µM).
Turning to `CC1CN(C(=O)c2cc([N+](=O)[O-])cc([N+](=O)[O-])c2)CC(C)O1` (configuration not stated), the solubility (kinetic) was greater than 46.4 µg/mL.
Next, `CCOC(=O)c1cnc2c(F)ccc(F)c2c1Sc1ccccc1`: 5.7 µg/mL (≈ 16.5 µM); `Cc1nc([N+](=O)[O-])c(C(=O)OCc2ccccc2F)n1C`: 41.8 µg/mL (≈ 143 µM).
Next, `Cc1ccc(-c2csc(N=C(N)N)n2)cc1`: 15.7 µg/mL (≈ 67.6 µM); `CC(=O)c1ccc(OCc2cc([N+](=O)[O-])cc3c2OCOC3)cc1`: 2.6 µg/mL (≈ 7.9 µM); `CCOC(=O)CN1C(=O)C(=O)N(Cc2c(Cl)cccc2Cl)C1=O`: 30.6 µg/mL (≈ 85.2 µM).
`Cc1cc(C)c(C#N)c(SCc2ccc([N+](=O)[O-])cc2)n1` registered a kinetic solubility of less than 0.2 µg/mL.
`CCN(CC)CC#CC(OC)(c1ccccc1)c1ccccc1.Cl`: the solubility (kinetic) is 29.5 µg/mL.
The figure for `COC(=O)C(NC(=O)c1ccccc1C(=O)O)c1ccc2ccccc2c1` (configuration not stated) is greater than 54.5 µg/mL; for `COc1ccc(Cn2c(=S)[nH]c3ccccc3c2=O)cc1` it is less than 0.3 µg/mL; for `COc1ccc(C(=O)C2CCCN(C(=O)C3=CCCC3)C2)c(C)c1` (configuration not stated) it is greater than 49.1 µg/mL.
Take `CCOC(=O)N1CCN=C1SCc1ccc(C(F)(F)F)cc1`: the kinetic solubility came out at 13.6 µg/mL (≈ 40.9 µM).
In turn, `O=[N+]([O-])c1ccc(CN2C=NS(=O)(=O)c3ccccc32)cc1` had a kinetic solubility greater than 47.6 µg/mL.
On to `COc1cc2nc(Nc3ccc(F)cc3)nc(N)c2cc1OC.Cl`, for which the solubility (kinetic) was greater than 52.6 µg/mL.
In turn, `Cc1ccc(CNC(=O)C2CC=CCC2C(=O)O)cc1` (configuration not stated) showed a solubility (kinetic) greater than 41 µg/mL.
With `CCOC(=O)CC1C(=O)NCCN1C(=O)c1ccc(Cl)cc1` (configuration not stated), the solubility (kinetic) was greater than 48.7 µg/mL.
The figure for `COc1ccc(OCC(=O)N2c3ccccc3CC2C)c([N+](=O)[O-])c1` (configuration not stated) is 17.3 µg/mL (≈ 50.5 µM); for `CCc1ccc(OCCNC(=O)c2ccco2)cc1` it is greater than 38.9 µg/mL.
The figure for `CC(C)(C)C(=O)NC(=O)Nc1ccccc1C(F)(F)F` is 3.3 µg/mL (≈ 11.4 µM); for `Cc1ccn2c(C=O)c(-c3ccc(F)cc3)c(C=O)c2c1` it is 8.5 µg/mL (≈ 30.2 µM); for `CC12CCC(C(=O)O)(c3nc4cc([N+](=O)[O-])ccc4nc31)C2(C)C` (configuration not stated) it is greater than 49.1 µg/mL.
Compound `CC(NC(=O)Nc1ccc(Cl)cc1)c1ccc2c(c1)OCO2` (configuration not stated) came in with a solubility (kinetic) of 2.8 µg/mL (≈ 8.78 µM).
The figure for `O=C(OCC(O)COc1ccccc1)c1ccc([N+](=O)[O-])cc1` (configuration not stated) is 43.7 µg/mL (≈ 138 µM); for `Cc1ccc(C(=O)OCC(=O)N2c3ccccc3NC(=O)C2(C)C)cc1S(=O)(=O)N1CCCCC1` it is 3.6 µg/mL (≈ 7.21 µM).
The compound `Cc1ccc(/C([O-])=C(/C(=S)NCc2ccccc2)[n+]2ccccc2)cc1[N+](=O)[O-]` registered a kinetic solubility of 12 µg/mL (≈ 29.6 µM).
In turn, `O=CC1=C(N2CCOCC2)/C(=C\c2ccccc2)CC1` registered a kinetic solubility of 32.2 µg/mL (≈ 120 µM).
The figure for `Cc1cc(C)c(NC(=O)CC(=O)c2ccccc2)c(Cl)c1` is 3.5 µg/mL (≈ 11.6 µM); for `CN(C(=O)C(C)(C)C)C1c2c(ccc3ccccc23)OCC1CO` (configuration not stated) it is 6.6 µg/mL (≈ 20.2 µM).
As to `CC(NC(=O)c1ccccc1)C(=O)N/N=C/c1ccccc1` (configuration not stated), the solubility (kinetic) is greater than 44.3 µg/mL.
Next, `COc1cc(C)c(S(=O)(=O)NOCc2ccc([N+](=O)[O-])cc2)c(C)c1C`: less than 0.4 µg/mL; `CC(C)CNC(=S)N1CCC(NC(=O)c2ccco2)CC1`: 41.9 µg/mL (≈ 135 µM); `Cc1ccc(NS(=O)(=O)c2ccc(Cl)nc2)c(C)c1`: greater than 44.5 µg/mL.
As for `FCCCOc1ccc(-c2nccc(-c3ccccn3)n2)cc1`, the kinetic solubility is 2.8 µg/mL (≈ 9.05 µM).
`CC(=O)Nc1cccc(NC(=S)Nc2cccc3ccccc23)c1` returned a kinetic solubility greater than 50.3 µg/mL.
Regarding `COc1ccccc1NC(=O)N1CCCC1C(=O)NCc1cccs1` (configuration not stated), the kinetic solubility is greater than 53.9 µg/mL.
`Cl.O=c1cc[nH]c2c1ccc1c(=O)cc[nH]c12` had a kinetic solubility of 34.6 µg/mL.
Next, `O=C(CSc1nccc(-c2cccs2)n1)Nc1ccc(F)c(Cl)c1`: 1.4 µg/mL (≈ 3.69 µM).
As for `Cc1ccc(C)c(C(=O)COC(=O)C(C)N2C(=O)C3C4CCC(C4)C3C2=O)c1` (configuration not stated), the solubility (kinetic) was found to be 42 µg/mL (≈ 110 µM).
On to `Cc1cccc2nc(-c3ccco3)oc(=O)c12`, for which the kinetic solubility is 21.6 µg/mL (≈ 95.1 µM).
The figure for `CC12CC3(C)CC(C)(C1)CC(C(=O)NC(=S)N1CCCC1)(C2)C3` is less than 0.4 µg/mL; for `O=C(COC(=O)Cn1ccc(=O)[nH]c1=O)Nc1ccc(F)cc1` it is greater than 48.2 µg/mL; for `CC(NC(=O)CN1CCOCC1)c1ccccc1` (configuration not stated) it is greater than 37.2 µg/mL.
`O=C(O/N=C1\CCS(=O)(=O)c2sccc21)C1CC1` displayed a solubility (kinetic) greater than 42.8 µg/mL.
The figure for `CC(CC(=O)O)CC(=O)Nc1nncs1` (configuration not stated) is greater than 34.4 µg/mL.
The figure for `O=C1Nc2ccc(F)cc2C12OCCO2` is 31.3 µg/mL (≈ 150 µM); for `COc1cc(OC)c(CNC2CCCCCC2)cc1Br` it is greater than 51.3 µg/mL; for `CCN(CC(=O)Nc1ccc(C(=O)OC)cc1)C1CCCCC1` it is 43.3 µg/mL (≈ 136 µM).
Consider `CCOc1cccc(CN2CCC(CCC(=O)NC3CC3)CC2)c1O`, for which the kinetic solubility was 44.4 µg/mL (≈ 128 µM).

The record behind these values is PubChem BioAssay AID1996.
